According to publication PMC7093798 (Data in Brief, 2019):

Tested on: aminopyrine N-demethylase activity (CYP)
Assay: CYP inhibition: aminopyrine N-demethylase
Assay type: in vitro ADME, rat
Details: RLM, 1–100 μM

SMILES: O=C(/C=C/c1cccnc1)NCCCCC1CCN(C(=O)c2ccccc2)CC1 [FK866]
- AND inhibitory activity (in words): mild AND inhibitory activity only at 100 μM concentration
